{
  "source": "paper PMC7536072",
  "about": "“Molecular and functional characterization of somatostatin-type signalling in a deuterostome invertebrate” (Open Biology, 2020)",
  "key": {"[1]": {"tested_on": "cardiac stomach preparations from A. rubens", "test": "in vitro relaxation of cardiac stomach preparations", "set-up": "species or system Asterias rubens", "description": "Synthetic ArSS2 ([…], with a disulfide bridge between the cysteine residues) was custom synthesized (Peptide Protein Research Ltd, Fareham, UK) to enable testing of its pharmacological effects on in vitro preparations of organs/muscles from A. rubens. ArSS2 was tested for its in vitro effects on the contractility of tube foot, apical muscle and cardiac stomach preparations from at least six different specimens of A. rubens. Individual tube foot preparations were dissected from starfish arms with their corresponding ampulla intact. Then cotton ligatures were tied around the ambulacral body wall and the tube foot disc and then the external epithelium of the tube foot was scraped off using a blunt scalpel blade to facilitate penetration of peptides when tested in vitro, as described previously. Apical muscle preparations were dissected from the aboral body wall with approximately 1 cm strips of apical muscle tied at each end with cotton ligatures. Cardiac stomach preparations were dissected as described previously and then were tied at the aboral side of the cardiac stomach and around the oesophagus with cotton ligatures. The dissected preparations were tied to a fixed metal hook orally and to a high-grade isotonic transducer (MLT0015; ADInstruments Ltd; Oxford, UK) aborally, suspended in a 20 ml aerated organ bath containing artificial seawater at approximately 11°C. The transducer was connected via a bridge amplifier (FE221 Bridge Amp, ADInstruments Ltd, Oxford, UK) to data acquisition hardware (PowerLab 2/36, ADInstruments Ltd, Oxford, UK). Data collected from PowerLab were visualized as traces and analysed using LabChart (v. 8.0.7) software installed on a laptop computer (Lenovo E540, Windows 7 Professional).\nTo examine the effects of ArSS2 on tube foot and cardiac stomach preparations, 10^−6 M acetylcholine (ACh) or artificial seawater (ASW) containing 30 mM added KCl was used to induce contraction of these preparations, respectively. Once a stable baseline contracted state was achieved, synthetic ArSS2 was added into the organ bath to sequentially achieve final concentrations in the range of 10^−10 to 10^−6 M. For these experiments, the contracting effect of 10^−6 M ACh or ASW containing 30 mM added KCl was defined as 100% and the relaxing effects of ArSS2 were then calculated as a percentage reversal of the 100% contracted state.\nExperiments were performed where the effects of ArSS2, S2 and asterotocin (at 10^−7 and 10^−6 M) on cardiac stomach preparations (n = 6) were compared. For these experiments, the effect of 10^−7 or 10^−6 M S2 was defined as 100% and the effect of asterotocin or ArSS2 was calculated as a % of the effect of S2. To determine if there were significant differences in magnitude of the relaxing effects of the three peptides on cardiac stomach preparations, data were analysed statistically using a two-tailed Student's t-test in Prism 6."}, "ArSSR1": {"tested_on": "ArSSR1", "test": "GFP-aequorin luminescence receptor activation assay, CHO-K1 cells, ArSSR1 + Gα16", "format": "cell-based, Asterias rubens"}, "[2]": {"settings": "10^−7 M, KCl-contracted, mean, n = 6"}},
  "note": "Bridges are numbered along the chain shown (N, C = ends). Where no end group is shown, it is not given here.",
  "data": [
    {"sequence": "RAKNARCMADFWKGRGLVDC (disulfide 7-20 (inferred)) [ArSS2]", "values": [
      {"measurement": "extent of relaxation of cardiac stomach preparations", "setting": "[1]; 10^−6 M", "result": "maximal relaxation"},
      {"measurement": "magnitude of cardiac stomach relaxing action compared with S2", "setting": "[1]; 10^−6 M, KCl-contracted, n = 6", "result": "not significantly different to the effect S2"},
      {"measurement": "reversal of KCl-induced cardiac stomach contraction", "setting": "[1]; 10^−6 M, contraction induced by 30 mM KCl = 100%, artificial seawater, approximately 11°C, mean ± s.e.m., n = 10", "result": "60 ± 18", "unit": "%"},
      {"measurement": "magnitude of cardiac stomach relaxing action relative to S2", "setting": "[1]; [2]", "result": "1.5 times the effect of S2"},
      {"measurement": "magnitude of cardiac stomach relaxing action relative to asterotocin", "setting": "[1]; [2]", "result": "44 % of the effect of asterotocin"},
      {"measurement": "relaxing effect compared with S2", "setting": "[1]; 10^−7 M, two-tailed Student's t-test p = 0.0303, n = 6", "result": "significantly larger than the effect of S2"},
      {"measurement": "relaxation of cardiac stomach preparations", "setting": "[1]; pre-contracted with 30 mM KCl, tested 10^−10 to 10^−6 M", "result": "dose-dependent relaxation of cardiac stomach preparations at concentrations between 10^−9 and 10^−6 M"},
      {"measurement": "EC50", "setting": "ArSSR1; ArSSR1 + Gα16 in CHO-K1 cells expressing GFP-aequorin (G5A), peptide 10^−21 to 10^−4 M, luminescence over 35 s, mean of at least three independent experiments, three repeats each, read-out: half-maximal response concentration (EC50)", "result": 0.088, "unit": "nM"},
      {"measurement": "luminescence compared with control", "setting": "ArSSR1; ArSSR1, 10^−5 M, vs BSA media (control) and, for ArSS2, vs ArSS1, one-way ANOVA, Bonferroni", "result": "significantly higher than the luminescence in cells exposed to ArSS1 or BSA media (control)"},
      {"measurement": "triggering of luminescence", "setting": "ArSSR1; ArSSR1, 10^−21 to 10^−4 M", "result": "caused dose-dependent luminescence"},
      {"measurement": "efficacy compared between receptors", "setting": "ArSSR1; ArSSR1 and ArSSR2 vs ArSSR3, 10^−5 M", "result": "higher for ArSSR1 and ArSSR2 than for ArSSR3"}
    ]}
  ]
}
